The values below come from US12649750B2, “Macrocyclic compounds, compositions, and methods of using thereof” (Sionna Therapeutics Inc., priority 2022, dated 2026).

The target of this assay is T1, NBD1 (Homo sapiens, UniProt P13569).
T1 construct: Purified recombinant NBD1 was produced using previously described methods; made in house
T1 sequence (P13569 423-646 limits assumed): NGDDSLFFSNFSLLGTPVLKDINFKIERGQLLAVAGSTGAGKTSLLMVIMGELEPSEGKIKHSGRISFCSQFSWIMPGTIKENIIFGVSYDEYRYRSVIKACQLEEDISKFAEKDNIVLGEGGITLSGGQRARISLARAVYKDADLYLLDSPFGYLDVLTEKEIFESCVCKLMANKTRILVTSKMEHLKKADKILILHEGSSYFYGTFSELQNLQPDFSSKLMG
The experiment in a line: Aggregation analysis using differential static light scattering (DSLS), thermal stability of NBD1 (ΔTagg). The assay is classed as binding. Particulars: ΔTagg versus DMSO control, NBD1 0.2 mg/ml. How it is done:
Example 386. Aggregation Analysis Using Differential Static Light Scattering (DSLS)
Purified recombinant NBD1 was produced using previously described methods (A. Schmidt, J. L. Mendoza, P. J. Thomas (2011) Biochemical and Biophysical Approaches to Probe CFTR Structure (365-376) M. D. Amaral, K. Kunzelmann (eds.), Cystic Fibrosis, Methods in Molecular Biology 741, Springer Science+Business Media). The effect of test compounds on thermal stability of NBD1 was evaluated by differential static light scattering (DSLS) using the Harbinger Stargazer-384 instrument (Epiphyte Three, Toronto, Canada). Test compounds were dissolved and diluted to desired concentrations in 100% DMSO. The compounds or DMSO controls (100 nL) were stamped into wells of a […] low volume optical plate (Corning Inc., Corning, NY) using the Echo 555 acoustic liquid handler (Labcyte Inc., San Jose, CA).
NBD1 protein was diluted to 0.2 mg/ml in S200 buffer (50 mM Tris-HCl, 150 mM NaCl, 5 mM MgCl2, 2 mM ATP, 2 mM DTT, pH7.6) containing 1% glycerol. 10 uL of protein solution was aliquoted into the 384-well plate harboring the test compounds and 10 uL mineral oil was overlaid onto the protein solution, using the epMotion robotic liquid handler (Eppendorf North America, Hauppauge, NY). After placing into the Stargazer instrument, the plate was heated at 1° C. per minute to 70° C. Images were captured from 25° C. to 70° C. every 0.5° C. At the end of the experiment run, instrument software integrated image files and analyzed data automatically. A […] regression curve was generated for each well, representing the increase in light scattering over time. A temperature of aggregation (Tagg) was calculated based on the inflection point of the curve. To better compare data across experiments the average Tagg for DMSO control wells was calculated and subtracted from values for wells containing compounds to obtain a “ΔTagg” value. These ΔTagg values reflect stabilizing efficacy of the compounds. As set forth in Table 2 below, an ΔTagg value less than or equal to 5° C. is marked “A”; a value above 5° C. and less than or equal to 10° C. is marked “B”; a value greater than 10° C. and less than or equal to 25° C. is marked “C”.
As for `C[C@@H](Cc1cccc(C2(C)CCCC(C)(C)CS(=O)(=O)CCc3c(c(F)cc4[nH]ccc34)[S+]([O-])c3ccnc(c3)-c3nc2nn3C)n1)C(=O)O` (single isomer, unassigned) [Compound 315B], the “DSLS 3D (100 μM ΔT)” value was “A (an ΔTagg value less than or equal to 5 °C is marked “A”)”.

Take `C[C@@H](Cc1cccc(C2(C)CCCC(C)(C)CS(=O)(=O)CCc3c(c(F)cc4[nH]ccc34)[S+]([O-])c3ccnc(c3)-c3nc2nn3C)n1)C(=O)O` (single isomer, unassigned) [Compound 315C]: the “DSLS 3D (100 μM ΔT)” value is “A (an ΔTagg value less than or equal to 5 °C is marked “A”)”.

Turning to `C[C@@H](Cc1cccc(C2(C)CCCC(C)(C)CS(=O)(=O)CCc3c(c(F)cc4[nH]ccc34)[S+]([O-])c3ccnc(c3)-c3nc2nn3C)n1)C(=O)O` (single isomer, unassigned) [Compound 315D], the “DSLS 3D (100 μM ΔT)” value was “B (a value above 5 °C and less than or equal to 10 °C is marked “B”)”.

Turning to `CC1c2ccnc(c2)-c2nc(nn2C)[C@@](C)(c2cccc(C[C@H](C)C(=O)O)c2)CCCC(C)(C)CS(=O)(=O)CCc2c1c(F)c(F)c1[nH]ccc21` (single isomer, unassigned) [Compound 316A], the “DSLS 3D (100 μM ΔT)” value is “B (a value above 5 °C and less than or equal to 10 °C is marked “B”)”.

With `CC1c2ccnc(c2)-c2nc(nn2C)[C@@](C)(c2cccc(C[C@H](C)C(=O)O)c2)CCCC(C)(C)CS(=O)(=O)CCc2c1c(F)c(F)c1[nH]ccc21` (single isomer, unassigned) [Compound 316B], the “DSLS 3D (100 μM ΔT)” value is “A (an ΔTagg value less than or equal to 5 °C is marked “A”)”.

With `CC1c2ccnc(c2)-c2nc(nn2C)[C@@](C)(c2cccc(C[C@@H](C)C(=O)O)c2)CCCC(C)(C)CS(=O)(=O)CCc2c1c(F)c(F)c1[nH]ccc21` (single isomer, unassigned) [Compound 317A], the “DSLS 3D (100 μM ΔT)” value is “B (a value above 5 °C and less than or equal to 10 °C is marked “B”)”.

As to `CC1c2ccnc(c2)-c2nc(nn2C)[C@@](C)(c2cccc(C[C@@H](C)C(=O)O)c2)CCCC(C)(C)CS(=O)(=O)CCc2c1c(F)c(F)c1[nH]ccc21` (single isomer, unassigned) [Compound 317B], the “DSLS 3D (100 μM ΔT)” value was “A (an ΔTagg value less than or equal to 5 °C is marked “A”)”.

Turning to `CC1c2ccnc(c2)-c2nc(nn2C)[C@@](C)(c2cccc(CC(C)(C)C(=O)O)c2)CCCC(C)(C)CS(=O)(=O)CCc2c1c(F)c(F)c1[nH]ccc21` (single isomer, unassigned) [Compound 318A], the “DSLS 3D (100 μM ΔT)” value was “A (an ΔTagg value less than or equal to 5 °C is marked “A”)”.

On to `CC1c2ccnc(c2)-c2nc(nn2C)[C@@](C)(c2cccc(CC(C)(C)C(=O)O)c2)CCCC(C)(C)CS(=O)(=O)CCc2c1c(F)c(F)c1[nH]ccc21` (single isomer, unassigned) [Compound 318B], for which the “DSLS 3D (100 μM ΔT)” value is “A (an ΔTagg value less than or equal to 5 °C is marked “A”)”.

For the molecule `C[C@H](Cc1cccc([C@@]2(C)CCCC(C)(C)CS(=O)(=O)CCc3c(c(F)c(F)c4[nH]ccc34)[S+]([O-])c3ccc(F)c(c3)-c3nc2nn3C)c1)C(=O)O` (single isomer, unassigned) [Compound 319], the “DSLS 3D (100 μM ΔT)” value is “B (a value above 5 °C and less than or equal to 10 °C is marked “B”)”.

In the case of `Cn1nc2nc1-c1cc(ccc1F)[S+]([O-])c1c(F)c(F)c3[nH]cc(CC(=O)O)c3c1CCS(=O)(=O)CC(C)(C)CCC[C@]2(C)c1ccccc1` (single isomer, unassigned) [Compound 326], the “DSLS 3D (100 μM ΔT)” value is “A (an ΔTagg value less than or equal to 5 °C is marked “A”)”.

Take `C[C@@H](Cc1cccc([C@@]2(C)CCCC(C)(C)CS(=O)(=O)CCc3c(c(F)cc4[nH]ccc34)[S+]([O-])c3cccc(c3)-c3coc2n3)c1)C(=O)O` (single isomer, unassigned) [Compound 330]: the “DSLS 3D (100 μM ΔT)” value was “A (an ΔTagg value less than or equal to 5 °C is marked “A”)”.

As to `Cn1nc2nc1-c1cc(ccn1)[S+]([O-])c1c(F)cc3[nH]ccc3c1CCS(=O)(=O)CC(C)(C)CCC[C@]2(C)c1cccc(C[C@H](O)CO)c1` (single isomer, unassigned) [Compound 334], the “DSLS 3D (100 μM ΔT)” value is “B (a value above 5 °C and less than or equal to 10 °C is marked “B”)”.

`Cn1nc2nc1-c1cc(ccn1)[S+]([O-])c1c(F)cc3[nH]ccc3c1CCS(=O)(=O)CC(C)(C)CCC[C@]2(C)c1cccc(C[C@@H](O)CO)c1` (single isomer, unassigned) [Compound 337]: the “DSLS 3D (100 μM ΔT)” value was “A (an ΔTagg value less than or equal to 5 °C is marked “A”)”.

In the case of `Cn1nc2nc1-c1cc(ccn1)[S+]([O-])c1c(F)c(F)c3[nH]ccc3c1CCS(=O)(=O)CC(C)(C)CCC[C@]2(C)c1cccc(C[C@H](O)CO)c1` (single isomer, unassigned) [Compound 341], the “DSLS 3D (100 μM ΔT)” value is “B (a value above 5 °C and less than or equal to 10 °C is marked “B”)”.

Turning to `CNC(=O)[C@H](C)Cc1cccc([C@@]2(C)CCCC(C)(C)CS(=O)(=O)CC(NC)c3c(c(F)c(F)c4[nH]ccc34)Oc3ccc(F)c(c3)-c3nc2nn3C)c1` (single isomer, unassigned) [Compound 360B], the “DSLS 3D (100 μM ΔT)” value is “B (a value above 5 °C and less than or equal to 10 °C is marked “B”)”.

Take `CNC(=O)[C@H](C)Cc1cccc([C@@]2(C)CCCC(C)(C)CS(=O)(=O)CC(NC)c3c(c(F)c(F)c4[nH]ccc34)Oc3ccc(F)c(c3)-c3nc2nn3C)c1` (single isomer, unassigned) [Compound 360C]: the “DSLS 3D (100 μM ΔT)” value is “A (an ΔTagg value less than or equal to 5 °C is marked “A”)”.

In the case of `Cn1nc2nc1-c1cc(ccn1)[S+]([O-])c1c(F)cc3[nH]cc(CC(=O)O)c3c1CCS(=O)(=O)CC(C)(C)CCC[C@]2(C)c1ccccc1` (single isomer, unassigned) [Compound 365], the “DSLS 3D (100 μM ΔT)” value was “A (an ΔTagg value less than or equal to 5 °C is marked “A”)”.

For the molecule `C[C@H](Cc1cccc([C@@]2(C)CCCC(C)(C)CS(=O)(=O)CC(N(C)C)c3c(c(F)c(F)c4[nH]ccc34)Oc3ccc(F)c(c3)-c3nc2nn3C)c1)C(=O)N(C)C` (single isomer, unassigned) [Compound 367A], the “DSLS 3D (100 μM ΔT)” value was “A (an ΔTagg value less than or equal to 5 °C is marked “A”)”.

As for `C[C@H](Cc1cccc([C@@]2(C)CCCC(C)(C)CS(=O)(=O)CC(N(C)C)c3c(c(F)c(F)c4[nH]ccc34)Oc3ccc(F)c(c3)-c3nc2nn3C)c1)C(=O)N(C)C` (single isomer, unassigned) [Compound 367B], the “DSLS 3D (100 μM ΔT)” value was “A (an ΔTagg value less than or equal to 5 °C is marked “A”)”.

`CNC(=O)[C@@H](C)Cc1cccc([C@@]2(C)CCCC(C)(C)CS(=O)(=O)CC(NC)c3c(c(F)cc4[nH]ccc34)Sc3ccc(F)c(c3)-c3nc2nn3C)c1` (single isomer, unassigned) [Compound 368A]: the “DSLS 3D (100 μM ΔT)” value was “B (a value above 5 °C and less than or equal to 10 °C is marked “B”)”.

For `CNC(=O)[C@@H](C)Cc1cccc([C@@]2(C)CCCC(C)(C)CS(=O)(=O)CC(NC)c3c(c(F)cc4[nH]ccc34)Sc3ccc(F)c(c3)-c3nc2nn3C)c1` (single isomer, unassigned) [Compound 368B], the “DSLS 3D (100 μM ΔT)” value was “A (an ΔTagg value less than or equal to 5 °C is marked “A”)”.

With `CC(=O)NC1CS(=O)(=O)CC(C)(C)CCC[C@](C)(c2cccc(C[C@@H](C)C(=O)O)c2)c2nc(n(C)n2)-c2cc(ccc2F)Oc2c(F)c(F)c3[nH]ccc3c21` (single isomer, unassigned) [Compound 369A], the “DSLS 3D (100 μM ΔT)” value was “C (a value greater than 10 °C and less than or equal to 25 °C is marked “C”)”.
